Measurements taken from patent publication US20180028543A1, “HYPOLIPIDEMIC COMPOSITION AND USE THEREOF” (priority 2014, published 2018).

How the values were obtained:
[1] = tested on: hyperlipidemia rats; assay: Hypolipidemic animal experiment: blood lipid levels in high-fat feed rats; format: in vivo, SD rats; conditions: serum, positive drug 1.5 mg/kg intragastric, 4 weeks, X ± S, n = 10
Experimental: 3. […] From the day of experiment, the blank control group and the model control group were intragastrically administered with normal saline (volume: 10 ml/kg), the administration group was intragastrically administered with corresponding drugs once a day, the body weight was weighed once a week, and the dosage was adjusted according to the body weight. The blank control group was fed with the normal feed, the other groups was fed with high-fat feed. During the experiment, free feeding, free drinking, continuous molding and drug administration for prevention were carried out for 4 weeks.
(§1) 4. Observation indexes: after the last administration, the rats fasted for 12 h without fasting water. The rats were anesthetized with 3% pentobarbital sodium, blood was collected from the abdominal aorta, serum was centrifugally separated, and the serum total cholesterol (TC), triglyceride (TG), high-density lipoprotein cholesterol (HDL-C), low-density lipoprotein cholesterol (LDL-C), alanine aminotransferase (ALT) and aspartate aminotransferase (AST) values were measured.

[2] = tested on: hyperlipidemia rats; assay: Effect on liver function (serum ALT, AST) of high-fat feed rats; format: in vivo, SD rats; conditions: positive drug 1.5 mg/Kg-d, 4 weeks, X ± S, n = 10
Description: 1. Experimental materials: 150 healthy SD male and female rats in clean grade, with body weight of (150.2±8.9) g.
2. Feed: general feed, high-fat feed formula: 72.7% of basic feed, 2% of cholesterol, 5% of egg yolk powder, 10% of lard, 0.2% of propylthiouracil, 10% of sucrose and 0.1% of sodium cholate.
3. Grouping and administration of animals: the purchased experimental rats were adaptively fed for 1 week in a lab, original numbers were assigned according to the weighing order, and the rats were randomly divided into a blank control group, a model control group, a pharmaceutical composition (respectively prepared as in Examples 3, 6, 8 and 10, and added with 50 ml of water per 10 g to be dissolved to obtain a solution) low-dose group (5 ml/kg·d), a middle-dose group (10 ml/kg-d), a high-dose group (15 ml/kg·d), a positive drug (simvastatin) control group (1.5 mg/kg, volume: 10 ml/kg) by looking up a random number table, and there were 10 rats in each group. […]
as §1, with “Observation indexes: after the last administration, the rats fasted for 12 h without fasting water.” left out, “measured. […]” for “measured.”

In the case of `CCC(C)(C)C(=O)O[C@H]1C[C@@H](C)C=C2C=C[C@H](C)[C@H](CC[C@@H]3C[C@@H](O)CC(=O)O3)[C@H]21` [Positive drug, simvastatin], the HDL-C [1] is reported as 1.23 ± 0.17 mmol/L, the LDL-C [1] is reported as 1.68 ± 1.91 mmol/L and the TC [1] is reported as 8.42 ± 4.79 mmol/L. For the same compound, the TG [1] was 0.49 ± 0.18 mmol/L, the ALT [2] was 45.85 ± 5.21 U/L and the AST [2] was 22.32 ± 7.56 U/L.
